How the values were obtained:
[1] = test system: GTPase KRas (Homo sapiens), P01116 [UNDEFINED MUTATION]; assay: Inhibition of KRas mutant in human SW480 cells assessed as cell viability by measuring ATP at 2 uM relative to control; assay type: cell-based
[2] = test system: GTPase KRas (Homo sapiens), P01116 [UNDEFINED MUTATION]; assay: Inhibition of KRas mutant in human DLD1 cells assessed as cell viability by measuring ATP at 0.2 uM relative to control; assay type: cell-based
[3] = test system: GTPase KRas (Homo sapiens), P01116 [UNDEFINED MUTATION]; assay: Inhibition of KRas mutant in human DLD1 cells assessed as cell viability by measuring ATP at 20 uM relative to control; assay type: cell-based
[4] = test system: GTPase KRas (Homo sapiens), P01116 [UNDEFINED MUTATION]; assay: Inhibition of KRas mutant in human HCT116 cells assessed as cell viability by measuring ATP at 20 uM relative to control; assay type: cell-based
[5] = test system: HeLa; assay: Cell cycle arrest in human HeLa cells assessed as effect on G1 phase incubated for 21 hrs by propidium iodide based flow cytometry; assay type: functional
[6] = molecular target: Apolipoprotein C-III (Homo sapiens) (UniProt P02656); assay: Inhibition of human APOC3 at 40 uM relative to control
[7] = test system: GTPase KRas (Homo sapiens), P01116 [UNDEFINED MUTATION]; assay: Inhibition of KRas mutant in human HCT116 cells […] assessed as cell viability by measuring ATP at 2 uM relative to control; assay type: cell-based
[8] = test system: HT-29; assay: Antiproliferative activity against human HT-29 cells assessed as reduction in cell viability incubated for 24 hrs by MTT assay; assay type: functional, cell-based; settings: HT-29, 24 h
[9] = test system: GTPase KRas (Homo sapiens), P01116 [UNDEFINED MUTATION]; assay: Inhibition of KRas mutant in human HCT116 cells assessed as cell viability by measuring ATP; assay type: cell-based
[10] = test system: GTPase KRas (Homo sapiens), P01116 [UNDEFINED MUTATION]; assay: Inhibition of KRas mutant in human SW480 cells assessed as cell viability by measuring ATP; assay type: cell-based
[11] = test system: GTPase KRas (Homo sapiens), P01116 [UNDEFINED MUTATION]; assay: Inhibition of KRas mutant in human HCT116 cells […] assessed as cell viability by measuring ATP; assay type: cell-based
[12] = test system: GTPase KRas (Homo sapiens), P01116 [UNDEFINED MUTATION]; assay: Inhibition of KRas mutant in human SW480 cells assessed as cell viability by measuring ATP at 0.2 uM relative to control; assay type: cell-based
[13] = test system: GTPase KRas (Homo sapiens), P01116 [UNDEFINED MUTATION]; assay: Inhibition of KRas mutant in human HCT116 cells […] assessed as cell viability by measuring ATP at 0.2 uM relative to control; assay type: cell-based
[14] = test system: HT-29; assay: Antiproliferative activity against human HT-29 cells assessed as reduction in cell viability incubated for 24 hrs in hypoxia condition by MTT assay; assay type: functional, cell-based; settings: HT-29, 24 h
[15] = Activation of wnt pathway in mouse C2C12 cells assessed as increase in beta-catenin activity; assay type: cell-based
[16] = test system: HeLa; assay: Cell cycle arrest in human HeLa cells assessed as effect on 4N stage incubated for 21 hrs by propidium iodide based flow cytometry; assay type: functional
[17] = test system: HeLa; assay: Cell cycle arrest in human HeLa cells assessed as effect on 2N stage incubated for 21 hrs by propidium iodide based flow cytometry; assay type: functional
[18] = test system: CHO; assay: Cytotoxicity against CHO cells assessed as reduction in cell viability; assay type: cell-based; settings: Cricetulus griseus
[19] = test system: GTPase KRas (Homo sapiens), P01116 [UNDEFINED MUTATION]; assay: Inhibition of KRas mutant in human DLD1 cells assessed as cell viability by measuring ATP at 2 uM relative to control; assay type: cell-based
[20] = test system: GTPase KRas (Homo sapiens), P01116 [UNDEFINED MUTATION]; assay: Inhibition of KRas mutant in human HCT116 cells […] assessed as cell viability by measuring ATP at 20 uM relative to control; assay type: cell-based
[21] = test system: GTPase KRas (Homo sapiens), P01116 [UNDEFINED MUTATION]; assay: Inhibition of KRas mutant in human SW480 cells assessed as cell viability by measuring ATP at 20 uM relative to control; assay type: cell-based
[22] = Activation of wnt pathway in mouse C2C12 cells assessed as increase in alkaline phosphatase activity; assay type: cell-based
[23] = test system: CYP1A1; assay: Selectivity index, ratio of IC50 of cytotoxicity against CHO cells to IC50 for bioactivation in CYP1A1 (unknown origin) transfected CHO cells assessed as CYP1A1-mediated drug activation by measuring reduction in cell viability; assay type: cell-based; settings: hamster, CHO cells and CYP1A1-transfected CHO cells; read-out: Ratio IC50
[24] = test system: GTPase KRas (Homo sapiens), P01116 [UNDEFINED MUTATION]; assay: Inhibition of KRas mutant in human HCT116 cells assessed as cell viability by measuring ATP at 2 uM relative to control; assay type: cell-based
[25] = test system: GTPase KRas (Homo sapiens), P01116 [UNDEFINED MUTATION]; assay: Inhibition of KRas mutant in human DLD1 cells assessed as cell viability by measuring ATP; assay type: cell-based
[26] = test system: HeLa; assay: Cell cycle arrest in human HeLa cells assessed as effect on mitotic index incubated for 21 hrs by propidium iodide based flow cytometry; assay type: functional
[27] = molecular target: Microtubule-associated protein tau (Homo sapiens) (UniProt P10636); assay: Inhibition of human Tau at 40 uM relative to control
[28] = molecular target: Proprotein convertase subtilisin/kexin type 9 (Homo sapiens) (UniProt Q8NBP7); assay: Inhibition of human PCSK9 at 40 uM relative to control
[29] = molecular target: T1, Angiopoietin-like protein 8 (Homo sapiens) (UniProt Q6UXH0); assay: Inhibition of human Angptl8 at 40 uM relative to control
T1 sequence (whole entry): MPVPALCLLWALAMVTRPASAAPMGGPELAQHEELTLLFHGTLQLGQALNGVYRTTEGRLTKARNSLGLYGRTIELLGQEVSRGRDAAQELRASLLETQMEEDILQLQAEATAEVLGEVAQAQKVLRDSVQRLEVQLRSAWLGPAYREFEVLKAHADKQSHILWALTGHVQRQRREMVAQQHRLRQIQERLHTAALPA

[30] = test system: GTPase KRas (Homo sapiens), P01116 [UNDEFINED MUTATION]; assay: Inhibition of KRas mutant in human HCT116 cells assessed as cell viability by measuring ATP at 0.2 uM relative to control; assay type: cell-based
[31] = test system: HT-29; assay: Selectivity index, ratio of IC50 of antiproliferative activity against human HT-29 cells in normoxia to IC50 of antiproliferative activity against human HT-29 cells in hypoxia condition; assay type: functional
[32] = test system: HeLa; assay: Cell cycle arrest in human HeLa cells assessed as effect on S phase incubated for 21 hrs by propidium iodide based flow cytometry; assay type: functional
[33] = test system: HeLa; assay: Cell cycle arrest in human HeLa cells incubated for 21 hrs by propidium iodide based flow cytometry; assay type: functional
[34] = molecular target: Sodium channel protein type 9 subunit alpha (Homo sapiens) (UniProt Q15858); assay: Inhibition of human Nav1.7 at 40 uM relative to control
Sequence of Sodium channel protein type 9 subunit alpha (Homo sapiens) (Q15858 whole entry, looked up): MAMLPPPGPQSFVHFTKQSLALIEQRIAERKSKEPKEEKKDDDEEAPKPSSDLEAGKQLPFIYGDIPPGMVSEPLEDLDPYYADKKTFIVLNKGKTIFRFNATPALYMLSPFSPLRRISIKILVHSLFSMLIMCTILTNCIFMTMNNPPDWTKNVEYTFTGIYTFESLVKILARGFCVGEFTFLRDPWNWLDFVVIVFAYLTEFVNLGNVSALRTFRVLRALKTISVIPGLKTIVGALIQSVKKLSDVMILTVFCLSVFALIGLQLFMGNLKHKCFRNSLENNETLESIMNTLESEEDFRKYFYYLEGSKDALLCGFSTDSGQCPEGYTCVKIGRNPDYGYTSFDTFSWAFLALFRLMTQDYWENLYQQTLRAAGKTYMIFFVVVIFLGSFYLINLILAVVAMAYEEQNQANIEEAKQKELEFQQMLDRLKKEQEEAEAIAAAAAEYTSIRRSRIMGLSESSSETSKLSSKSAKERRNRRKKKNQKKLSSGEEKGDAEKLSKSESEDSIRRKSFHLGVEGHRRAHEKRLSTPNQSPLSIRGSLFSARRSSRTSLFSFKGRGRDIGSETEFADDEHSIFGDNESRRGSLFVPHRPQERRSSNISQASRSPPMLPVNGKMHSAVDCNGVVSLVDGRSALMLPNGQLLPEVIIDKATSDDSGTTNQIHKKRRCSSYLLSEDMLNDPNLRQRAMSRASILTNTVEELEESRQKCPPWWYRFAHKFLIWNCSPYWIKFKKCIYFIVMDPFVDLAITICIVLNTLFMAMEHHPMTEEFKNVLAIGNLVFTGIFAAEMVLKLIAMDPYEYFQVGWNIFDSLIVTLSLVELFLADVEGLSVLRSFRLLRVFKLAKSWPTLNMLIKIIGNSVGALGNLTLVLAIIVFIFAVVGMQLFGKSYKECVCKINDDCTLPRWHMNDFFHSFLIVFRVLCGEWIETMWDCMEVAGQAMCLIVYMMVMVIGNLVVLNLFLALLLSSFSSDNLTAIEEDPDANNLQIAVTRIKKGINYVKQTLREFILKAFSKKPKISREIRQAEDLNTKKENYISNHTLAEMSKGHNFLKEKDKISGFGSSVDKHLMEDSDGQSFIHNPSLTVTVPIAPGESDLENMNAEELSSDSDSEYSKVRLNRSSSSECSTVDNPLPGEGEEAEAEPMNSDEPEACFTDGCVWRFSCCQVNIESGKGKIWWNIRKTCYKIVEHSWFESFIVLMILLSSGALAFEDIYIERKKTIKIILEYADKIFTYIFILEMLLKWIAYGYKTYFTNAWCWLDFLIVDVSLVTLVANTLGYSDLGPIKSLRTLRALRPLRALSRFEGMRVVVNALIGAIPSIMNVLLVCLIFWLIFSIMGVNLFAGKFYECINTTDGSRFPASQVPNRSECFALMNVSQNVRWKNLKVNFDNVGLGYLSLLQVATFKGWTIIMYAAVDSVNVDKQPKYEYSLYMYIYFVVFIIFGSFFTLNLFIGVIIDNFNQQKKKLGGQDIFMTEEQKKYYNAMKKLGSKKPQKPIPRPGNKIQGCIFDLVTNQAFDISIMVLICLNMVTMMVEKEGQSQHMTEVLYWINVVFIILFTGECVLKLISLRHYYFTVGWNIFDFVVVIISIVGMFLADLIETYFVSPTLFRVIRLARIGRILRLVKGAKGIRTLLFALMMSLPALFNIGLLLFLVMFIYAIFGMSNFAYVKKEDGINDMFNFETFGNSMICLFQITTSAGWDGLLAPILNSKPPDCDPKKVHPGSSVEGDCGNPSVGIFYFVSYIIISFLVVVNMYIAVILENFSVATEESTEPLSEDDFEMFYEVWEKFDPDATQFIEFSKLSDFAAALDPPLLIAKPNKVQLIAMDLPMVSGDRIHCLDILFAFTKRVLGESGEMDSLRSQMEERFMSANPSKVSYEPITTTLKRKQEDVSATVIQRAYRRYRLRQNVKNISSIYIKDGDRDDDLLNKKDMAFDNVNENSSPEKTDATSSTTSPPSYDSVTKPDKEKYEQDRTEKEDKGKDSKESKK

Sequence of Microtubule-associated protein tau (Homo sapiens) (P10636 whole entry): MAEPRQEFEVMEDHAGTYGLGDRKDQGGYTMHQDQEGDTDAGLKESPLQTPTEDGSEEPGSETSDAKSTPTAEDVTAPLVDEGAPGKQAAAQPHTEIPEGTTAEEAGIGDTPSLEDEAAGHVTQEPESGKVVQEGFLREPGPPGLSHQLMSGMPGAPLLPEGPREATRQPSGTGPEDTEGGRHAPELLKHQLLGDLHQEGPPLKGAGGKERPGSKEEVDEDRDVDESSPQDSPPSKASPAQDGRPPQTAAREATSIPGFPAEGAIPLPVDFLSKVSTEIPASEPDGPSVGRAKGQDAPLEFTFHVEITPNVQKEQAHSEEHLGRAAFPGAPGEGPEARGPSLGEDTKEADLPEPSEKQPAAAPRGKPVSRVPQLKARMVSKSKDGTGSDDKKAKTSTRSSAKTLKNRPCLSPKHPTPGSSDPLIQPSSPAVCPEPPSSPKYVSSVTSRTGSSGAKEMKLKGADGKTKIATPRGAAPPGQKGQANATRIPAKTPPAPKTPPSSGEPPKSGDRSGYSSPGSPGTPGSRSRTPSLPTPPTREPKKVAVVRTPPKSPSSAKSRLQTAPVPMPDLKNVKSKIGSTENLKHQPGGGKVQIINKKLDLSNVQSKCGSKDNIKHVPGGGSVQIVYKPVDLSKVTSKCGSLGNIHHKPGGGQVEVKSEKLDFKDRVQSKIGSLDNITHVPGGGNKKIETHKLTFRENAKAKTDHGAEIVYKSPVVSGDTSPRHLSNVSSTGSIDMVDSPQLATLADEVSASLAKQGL
Sequence of Proprotein convertase subtilisin/kexin type 9 (Homo sapiens) (Q8NBP7 31-152 limits assumed): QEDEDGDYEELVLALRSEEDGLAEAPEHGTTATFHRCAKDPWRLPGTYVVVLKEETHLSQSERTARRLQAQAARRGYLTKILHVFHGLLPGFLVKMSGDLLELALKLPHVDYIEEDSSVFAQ
Sequence of Proprotein convertase subtilisin/kexin type 9 (Homo sapiens) (Q8NBP7 153-692 limits assumed): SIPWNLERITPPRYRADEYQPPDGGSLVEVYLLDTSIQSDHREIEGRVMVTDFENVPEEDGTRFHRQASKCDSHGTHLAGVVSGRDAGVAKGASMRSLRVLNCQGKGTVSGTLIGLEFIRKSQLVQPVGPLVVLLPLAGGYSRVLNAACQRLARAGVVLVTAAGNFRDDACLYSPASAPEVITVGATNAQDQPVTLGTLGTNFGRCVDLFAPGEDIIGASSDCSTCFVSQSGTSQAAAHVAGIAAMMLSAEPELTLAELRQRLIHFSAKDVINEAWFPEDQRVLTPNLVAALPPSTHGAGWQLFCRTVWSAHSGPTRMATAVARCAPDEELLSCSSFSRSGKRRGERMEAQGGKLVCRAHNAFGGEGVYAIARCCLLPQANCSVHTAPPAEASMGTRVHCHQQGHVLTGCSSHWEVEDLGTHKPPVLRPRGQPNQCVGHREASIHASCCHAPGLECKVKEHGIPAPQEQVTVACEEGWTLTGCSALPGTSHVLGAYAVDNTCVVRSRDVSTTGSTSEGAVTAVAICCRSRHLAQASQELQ
Sequence of GTPase KRas (Homo sapiens), P01116 [UNDEFINED MUTATION] (P01116 whole entry, looked up, stated change not applied): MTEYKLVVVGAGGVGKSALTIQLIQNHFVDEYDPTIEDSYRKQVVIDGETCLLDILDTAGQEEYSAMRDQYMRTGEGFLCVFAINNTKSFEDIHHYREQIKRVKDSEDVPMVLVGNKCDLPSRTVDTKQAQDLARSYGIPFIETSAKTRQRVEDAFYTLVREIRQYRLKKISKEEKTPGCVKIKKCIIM
Sequence of Apolipoprotein C-III (Homo sapiens) (P02656 whole entry): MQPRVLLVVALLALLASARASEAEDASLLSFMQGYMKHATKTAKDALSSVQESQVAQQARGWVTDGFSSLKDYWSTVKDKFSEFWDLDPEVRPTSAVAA

| EC50 [5] | inhibition [6] | EC50 [15] | EC50 [16] | IC50 [17] | EC50 [22] | EC50 [26] | inhibition [27] | inhibition [28] | inhibition [29] | IC50 [32] | Compound | inhibition [1] | inhibition [3] | inhibition [4] | inhibition [7] | inhibition [12] | inhibition [19] | inhibition [20] | inhibition [21] | inhibition [24] | also measured |
| --- | --- | --- | --- | --- | --- | --- | --- | --- | --- | --- | --- | --- | --- | --- | --- | --- | --- | --- | --- | --- | --- |
| – | 34% | – | – | – | – | – | 8% | 15% | 15% | – | CCCCc1c2c(c(C)c3c1Oc1ccccc1O3)C(=O)OC2 | 14% | 41% | 38% | 0.4% | 12% | 6% | 2% | 14% | 7% | inhibition [30]: 39% |
| > 10 µM | 12% | > 10 µM | > 10 µM | > 10 µM | > 10 µM | > 10 µM | 23% | -7% | 34% | > 10 µM | CCCCCc1c2c(c(C)c3c1Oc1cc(OC)ccc1O3)C(=O)OC2 | – | -3.9% | 26% | – | – | – | – | – | – | – |

The remaining lines, values behind:

| Compound | EC50 [5] | inhibition [6] | EC50 [15] | EC50 [16] | IC50 [17] | EC50 [22] | EC50 [26] | inhibition [27] | inhibition [28] | inhibition [29] | IC50 [32] | inhibition [1] | inhibition [3] | inhibition [4] | inhibition [7] | inhibition [12] | inhibition [19] | inhibition [20] | inhibition [21] | inhibition [24] | also measured |
| --- | --- | --- | --- | --- | --- | --- | --- | --- | --- | --- | --- | --- | --- | --- | --- | --- | --- | --- | --- | --- | --- |
| CCCCCCc1c2c(c(C)c3c1C(=O)OC3)Oc1ccccc1O2 | > 10 µM | 75% | > 20 µM | 2 µM | 2.1 µM | 7.6 µM | > 10 µM | 77% | 75% | 86% | > 10 µM | 58% | 112% | 91% | 69% | 21% | 50% | 62% | 86% | 60% | inhibition [2]: 14%; IC50 [8]: 1.33 µM; inhibition [9]: Dose-dependent effect; inhibition [10]: Dose-dependent effect; inhibition [11]: Dose-dependent effect; inhibition [13]: 52%; IC50 [14]: 8.93 µM; IC50 [18]: 1.52 µM; selectivity ratio [23]: 0.6; inhibition [25]: Dose-dependent effect; inhibition [30]: 12%; Ratio IC50 [31]: 0.15; IC50 [33]: 1.8 µM |
| CCCCCCc1c2c(c(C)c3c1C(=O)SC3)Oc1ccccc1O2 | > 10 µM | 21% | > 10 µM | > 10 µM | > 10 µM | > 10 µM | > 10 µM | 20% | 30% | 31% | > 10 µM | 9% | 90% | 40% | -4% | 13% | 7% | 18% | 22% | 10% | inhibition [2]: -9%; inhibition [34]: -10%; IC50 [33]: > 10 µM |
| CCc1c2c(nc3ccc(OC(=O)N4CCC(N5CCCCC5)CC4)cc13)-c1cc3c(c(=O)n1C2)COC(=O)[C@]3(O)CC [IRINOTECAN] | – | – | – | – | – | – | – | – | – | – | – | – | – | – | – | – | – | – | – | – | IC50 [8]: 3.96 µM; IC50 [14]: 3.55 µM; Ratio IC50 [31]: 1.12 |
| Cc1c2ccncc2c(C)c2c1[nH]c1ccccc12 [ELLIPTECINE] | – | – | – | – | – | – | – | – | – | – | – | – | – | – | – | – | – | – | – | – | IC50 [18]: 0.02 µM; selectivity ratio [23]: 15.6 |

Reference: ChEMBL document CHEMBL4312009, “Multigram scale synthesis of polycyclic lactones and evaluation of antitumor and other biological properties” (Eur J Med Chem, 2020)
